Data on twelve compounds can be found in patent US11981669B2, “1,7-naphthyridine derivative and preparation method and use therefor” (CSPC ZHONGQI PHARMACEUTICAL TECHNOLOGY (SHIJIAZHUANG) CO., …, priority 2018, dated 2024).

Values joined by “and” are separate entries in the source; they are usually repeats but may differ in a detail not shown here. Equal entries are not always repeated. Marks after values point to notes of the source that are not given here.

Broadly, the IC50 is the concentration needed to halve the response being measured.

Data set [1] has as its system erythropoietin. Kind of data set: Expression of erythropoietin in vivo (plasma EPO ELISA after single oral dose).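 Note: male C57 mice given compound by mouth, five animals per treatment group, with EPO in plasma measured by ELISA.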 The settings on record: once, plasma 6 hours after administration. (In general: An ELISA detects its analyte on a solid surface through an enzyme-linked reagent.)
Method: (2) 30 c57 mice, male, were divided into 6 groups, 5 mice in each treatment group. […] 6 hours after the administration, blood was taken, and plasma was collected for EPO detection with an ELISA kit (R&D Co.).
In data set [2] the test system is reticulocytes. Kind of data set: Effect on reticulocytes of normal mice. The class given is in vivo, Balb/c mice. Set-up: Reticulocytes (RETIC), average: unit not given here. How it is done:
72 Balb/c mice, male, were divided into 12 groups, 6 mice in each treatment group. In the positive drug control groups: the mice in the FG-4592 treatment groups were orally administered once, at two doses of 10 mg/kg and 50 mg/kg, and the mice in the rhEPO treatment group was intraperitoneaily injected once, at a dose of 100 IU/kg. The compounds of the present disclosure were all orally administered once at a dose of 10 mg/kg. 72 h after the administration, blood was collected from the orbit of all animals, and subjected to EDTA-K2 anticoagulation. Then reticulocytes (RETIC) were counted with an automatic blood cell analyzer.

Data set [3] deals with HIF-1α. Kind of data set: Expression of HIF-1α protein in Hep3B cells (western blot, grayscale analysis). The class given is cell-based, Human. The settings on record: for fold induction at 30 µM: Homo sapiens, 2 h, compound at 30 μM, 10 μM and 3 μM, read-out: HIF-1α level of the compound of the present disclosure/HIF-1α level of blank control. The procedure:
(§1) A test compound was dissolved in dimethyl sulfoxide into a 100 mM stock solution, and then was diluted with 0.5% FBS-containing DMEM medium into 30 μM, 10 μM and 3 μM for later use. Human liver cancer cells Hep3B were seeded in a six-well plate at a density of 2.25*10^5 cells/well, 2 mL per well. After cultivation overnight, the cells were treated with compounds at different concentrations for 2 h. The proteins were extracted for western blot and further grayscale analysis.

Data set [4] concerns HIF-2α. Kind of data set: Expression of HIF-2α protein in Hep3B cells (western blot, grayscale analysis). The class given is cell-based, Human. Particulars: for fold induction at 30 µM: Homo sapiens, 2 h, compound at 30 μM, 10 μM and 3 μM, read-out: HIF-2α level of the compound of the present disclosure/HIF-2α level of blank control. The procedure: as §1
The test system of data set [5] is rats with residual kidney. Kind of data set: SD rat residual kidney experiment. The class given is in vivo, SD rats. Set-up: Hematocrit / Alanine aminotransferase / Glutamic-oxalacetic transaminase: unit not given here. How it is done: 79 SD rats were subjected to residual kidney surgery after anesthesia (left kidney was resected, one third of the right kidney was left, and the resected kidney part was weighed to confirm the surgical error). After 4 weeks, 45 surviving rats were subjected to blood cell dection and then assigned according to the HCT value 37 rats in good condition were selected and divided into the following groups: Link-118 (5, 10 mg/kg), Link-121 (5, 10 mg/kg), and FG-4592 (10 mg/kg), 6 rats in each treatment group, and 7 in the model group. 4 rats were assigned to the blank control group. The rats were administered three times each week (administered on Monday, Wednesday, and Friday), for 15 times, and blood was taken 24 hours after the last administration (tested by blood routine, blood biochemistry, hepcidin kit).

Data set [6] has as its target CYP1A2 (Homo sapiens (Human), UniProt P05177). The class given is in vitro ADME. From the text: (§2) The compounds of the present disclosure were subjected to the CYP450 enzyme inhibition assay.
Data set [7] concerns the target CYP2C19 (Homo sapiens (Human), UniProt P33261). Kind of data set: CYP enzyme inhibition assay. The class given is in vitro ADME.
Source text: as §2

The target in data set [8] is CYP2C9 (Homo sapiens (Human), UniProt P11712). Kind of data set: CYP enzyme inhibition assay. It counts as in vitro ADME.
Source text: as §2

Data set [9] deals with CYP2D6 (Homo sapiens (Human), UniProt P10635). Kind of data set: CYP enzyme inhibition assay. The class given is in vitro ADME.
Source text: as §2

Data set [10] deals with CYP3A4-M (Homo sapiens (Human), UniProt P08684). Kind of data set: CYP enzyme inhibition assay. It counts as in vitro ADME.
Source text: as §2

Data set [11] addresses hERG channels (Homo sapiens (Human), UniProt Q12809). Kind of data set: cell-based. Particulars: for Inhibitory effect on hERG current at the highest test concentration: human, 30 μM. It counts as cell-based. How it is done: Whole-cell patch clamp technique was used to record hERG current. A cell suspension was added to a 35 mm Petri dish, and the dish was then placed on an inverted microscope stage. After the adherence of cells, they were perfused with extracellular fluid at a flow rate of 1-2 mL/min. A glass microelectrode was drawn by a microelectrode puller in two steps, and the pipette tip resistance was between 2-5 MΩ. After establishing the whole cell recording, the clamp potential was held at −80 mV, followed by depolarization to +60 mV when given voltage stimulation and then repolarization to −50 mV to elicit hERG tail current. All recordings were performed after the current was stable. Extracellular perfusion administration started from a low concentration, staying for 5-10 min at each concentration until the current was stable, and then cells were further perfused with the next concentration.

Where [12] appears, read: 10 mg/kg p.o., once, 72 h after administration.
The mark [13] stands for this setting: 10 mg/kg, three times each week, 15 times, x ± sd.
The mark [14] stands for this setting: compared with the blank control group.
Where [15] appears, read: 100 IU/kg i.p., once, 72 h after administration.

Sequence of CYP2C9 (P11712 whole entry): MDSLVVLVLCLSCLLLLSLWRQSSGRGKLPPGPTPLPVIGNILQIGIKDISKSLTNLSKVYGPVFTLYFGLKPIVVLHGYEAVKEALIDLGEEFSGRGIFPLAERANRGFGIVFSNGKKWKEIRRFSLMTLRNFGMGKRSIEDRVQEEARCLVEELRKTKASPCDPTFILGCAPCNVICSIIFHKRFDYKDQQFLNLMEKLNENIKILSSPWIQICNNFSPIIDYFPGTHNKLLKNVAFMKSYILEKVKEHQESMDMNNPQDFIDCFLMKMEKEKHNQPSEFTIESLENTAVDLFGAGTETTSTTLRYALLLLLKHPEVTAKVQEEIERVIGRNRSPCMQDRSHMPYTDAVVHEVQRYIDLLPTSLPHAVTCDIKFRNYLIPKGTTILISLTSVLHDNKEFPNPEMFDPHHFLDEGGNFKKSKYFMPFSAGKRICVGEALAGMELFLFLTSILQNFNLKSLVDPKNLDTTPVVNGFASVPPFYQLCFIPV
Sequence of hERG channels (Q12809 whole entry, the tested form may be a part): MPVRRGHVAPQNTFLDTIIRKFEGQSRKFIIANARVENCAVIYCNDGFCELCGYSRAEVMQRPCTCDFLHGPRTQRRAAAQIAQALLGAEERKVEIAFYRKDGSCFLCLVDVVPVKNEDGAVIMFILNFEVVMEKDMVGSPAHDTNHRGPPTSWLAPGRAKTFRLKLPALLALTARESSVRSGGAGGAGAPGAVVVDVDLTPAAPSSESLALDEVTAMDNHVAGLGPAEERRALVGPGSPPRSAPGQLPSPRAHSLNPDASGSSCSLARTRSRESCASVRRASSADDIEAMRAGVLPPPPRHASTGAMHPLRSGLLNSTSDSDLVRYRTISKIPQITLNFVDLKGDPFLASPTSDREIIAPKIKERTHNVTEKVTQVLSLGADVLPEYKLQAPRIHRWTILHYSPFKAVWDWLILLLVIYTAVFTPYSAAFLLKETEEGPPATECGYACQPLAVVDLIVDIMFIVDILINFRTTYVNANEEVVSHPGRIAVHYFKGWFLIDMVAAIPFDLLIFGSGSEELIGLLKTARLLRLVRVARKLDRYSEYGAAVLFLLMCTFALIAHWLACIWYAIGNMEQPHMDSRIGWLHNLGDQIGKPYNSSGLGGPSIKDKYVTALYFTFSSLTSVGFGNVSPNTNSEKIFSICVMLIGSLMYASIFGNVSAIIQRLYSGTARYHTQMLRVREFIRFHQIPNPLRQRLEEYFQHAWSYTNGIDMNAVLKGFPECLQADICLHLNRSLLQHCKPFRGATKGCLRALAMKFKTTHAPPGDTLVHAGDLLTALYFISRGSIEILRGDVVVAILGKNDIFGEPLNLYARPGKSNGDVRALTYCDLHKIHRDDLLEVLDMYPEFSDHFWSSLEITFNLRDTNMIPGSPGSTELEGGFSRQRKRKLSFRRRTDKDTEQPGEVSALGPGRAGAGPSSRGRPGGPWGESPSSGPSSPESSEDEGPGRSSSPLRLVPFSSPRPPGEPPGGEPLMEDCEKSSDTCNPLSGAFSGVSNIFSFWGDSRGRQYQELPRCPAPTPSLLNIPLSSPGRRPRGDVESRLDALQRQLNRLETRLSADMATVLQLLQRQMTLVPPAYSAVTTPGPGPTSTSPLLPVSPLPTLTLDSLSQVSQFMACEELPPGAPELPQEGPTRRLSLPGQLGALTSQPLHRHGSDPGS
Sequence of CYP2C19 (P33261 whole entry): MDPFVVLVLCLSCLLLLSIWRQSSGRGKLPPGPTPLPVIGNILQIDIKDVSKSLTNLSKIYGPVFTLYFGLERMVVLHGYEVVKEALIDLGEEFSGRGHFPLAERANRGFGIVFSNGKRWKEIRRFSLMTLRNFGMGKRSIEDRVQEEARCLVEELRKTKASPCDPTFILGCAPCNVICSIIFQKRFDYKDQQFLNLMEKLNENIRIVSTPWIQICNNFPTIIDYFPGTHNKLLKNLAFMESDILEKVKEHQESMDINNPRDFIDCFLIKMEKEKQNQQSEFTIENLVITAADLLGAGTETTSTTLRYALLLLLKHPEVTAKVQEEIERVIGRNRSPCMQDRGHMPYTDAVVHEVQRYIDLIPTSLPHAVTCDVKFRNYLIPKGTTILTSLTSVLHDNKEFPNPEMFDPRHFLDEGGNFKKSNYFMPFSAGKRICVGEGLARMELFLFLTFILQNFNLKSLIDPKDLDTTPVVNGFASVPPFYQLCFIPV
Sequence of CYP3A4-M (P08684 whole entry): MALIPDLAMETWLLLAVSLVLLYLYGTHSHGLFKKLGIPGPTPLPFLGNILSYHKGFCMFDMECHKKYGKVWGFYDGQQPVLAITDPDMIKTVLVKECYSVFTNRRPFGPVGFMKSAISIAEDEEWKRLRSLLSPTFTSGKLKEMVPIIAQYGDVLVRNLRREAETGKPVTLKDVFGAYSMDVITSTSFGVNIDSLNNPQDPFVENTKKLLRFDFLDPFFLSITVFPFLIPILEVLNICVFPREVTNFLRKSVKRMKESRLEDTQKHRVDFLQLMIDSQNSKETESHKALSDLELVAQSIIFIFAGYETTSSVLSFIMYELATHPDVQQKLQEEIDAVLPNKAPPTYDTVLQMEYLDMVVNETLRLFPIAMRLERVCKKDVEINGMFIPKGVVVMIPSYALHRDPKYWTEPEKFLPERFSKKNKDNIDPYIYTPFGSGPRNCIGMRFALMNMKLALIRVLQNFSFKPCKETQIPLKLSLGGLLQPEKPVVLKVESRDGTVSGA
Sequence of CYP1A2 (P05177 whole entry): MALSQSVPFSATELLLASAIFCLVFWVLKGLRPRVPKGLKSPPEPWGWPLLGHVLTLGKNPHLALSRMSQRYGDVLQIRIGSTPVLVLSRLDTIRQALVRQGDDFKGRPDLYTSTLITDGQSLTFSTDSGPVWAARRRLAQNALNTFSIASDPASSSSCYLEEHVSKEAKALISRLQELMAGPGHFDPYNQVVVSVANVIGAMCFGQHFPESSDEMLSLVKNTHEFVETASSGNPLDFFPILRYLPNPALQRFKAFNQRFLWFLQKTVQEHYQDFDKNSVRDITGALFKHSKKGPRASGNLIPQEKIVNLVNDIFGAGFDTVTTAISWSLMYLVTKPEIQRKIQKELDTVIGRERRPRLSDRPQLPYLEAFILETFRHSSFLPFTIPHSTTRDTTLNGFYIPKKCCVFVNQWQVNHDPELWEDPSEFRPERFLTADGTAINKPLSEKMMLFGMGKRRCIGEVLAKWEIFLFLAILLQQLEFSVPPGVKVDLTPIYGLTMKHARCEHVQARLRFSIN
Sequence of CYP2D6 (P10635 whole entry): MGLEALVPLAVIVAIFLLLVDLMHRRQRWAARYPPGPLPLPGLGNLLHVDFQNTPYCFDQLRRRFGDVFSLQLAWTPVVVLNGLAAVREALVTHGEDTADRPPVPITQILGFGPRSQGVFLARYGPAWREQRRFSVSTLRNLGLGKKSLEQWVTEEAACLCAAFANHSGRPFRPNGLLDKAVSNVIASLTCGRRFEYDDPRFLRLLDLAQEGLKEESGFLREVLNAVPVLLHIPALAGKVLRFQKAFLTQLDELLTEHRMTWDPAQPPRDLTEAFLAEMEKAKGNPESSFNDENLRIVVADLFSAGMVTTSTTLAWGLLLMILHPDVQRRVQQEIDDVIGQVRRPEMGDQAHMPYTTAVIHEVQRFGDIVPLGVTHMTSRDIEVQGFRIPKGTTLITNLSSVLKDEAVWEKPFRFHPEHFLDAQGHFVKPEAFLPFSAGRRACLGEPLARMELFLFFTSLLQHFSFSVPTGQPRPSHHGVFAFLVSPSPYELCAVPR

On to `CC(C)(C)C(=O)OCOC(=O)CNC(=O)c1nc(Cl)c2nc(Oc3ccccc3)ccc2c1O` [Link-135, methyl (2-(2-phenoxy-5-hydroxy-8-chloro-1,7-naphthyridine-6-formamido)acetoxy) pivalate], for which the “EPO OD value” in data set [1] (10 mg/kg) and in data set [1] (50 mg/kg) was “B (B represents 1.5<EPO OD value<2)” throughout.

In the case of `Cc1nc(C(=O)NCC(=O)O)c(O)c2ccc(Oc3ccccc3)cc12` [FG-4592, reference compound], the “Reticulocytes (RETIC), average” value in data set [2] (setting [12]) worked out at 4.73. Also, in [2] (50 mg/kg p.o., once, 72 h after administration), the “Reticulocytes (RETIC), average” value was found to be 7.42. The “Reticulocyte counts compared with normal animals” value in [2] (72 h after single administration, FG4592 statement at 10 mg/kg) is listed as “no significant difference from normal animals”. Besides, in [3], the fold induction at 30 µM was 8.5 to 10. Further, the fold induction at 30 µM in [4] is 8.5 to 10. For the same compound, the Red blood cells in [5] (10 mg/kg, three times each week, 15 times, blood 24 hours after last administration, x ± sd) is listed as 8.26 ± 0.41** 10^12/L. In [5] (setting [13]), this compound gave an Alanine aminotransferase of 40.4 ± 3.58, a Glutamic-oxalacetic transaminase of 11620 ± 10.96, a Hematocrit of 47.7 ± 2.19 and a Hemoglobin of 16720 ± 8.47 g/L. Besides, the Hepcidin in data set [5] (setting [13]) amounted to 2.59 ± 0.7015 ng/mL. Besides, in data set [5] (setting [14]), the “Effect on glutamic-oxalacetic transaminase” value was “no significant effect” and the “Effect on liver glutamic-pyruvic aminotransferase” value is “no significant effect”. For the same compound, in data set [5] (compared with the model group), the “Effect on HCT in rats with residual kidney” value is listed as “significantly increase”, the “Effect on HGB in rats with residual kidney” value was “significantly increase”, the “Effect on RBC in rats with residual kidney” value is “significantly increase” and the “Effect on hepcidin in rats with residual kidney” value is recorded as “significantly inhibit”. Also, in data set [1] (10 mg/kg), the “EPO OD value” is “A (A represents 1.0<EPO OD value<1.5)”. Besides, in [1] (50 mg/kg), the “EPO OD value” is given as “A (A represents 1.0<EPO OD value<1.5)”.

On to `O=C(O)CNC(=O)c1nc(Cl)c2nc(Oc3cccnc3)ccc2c1O` [Link-120, 2-(2-(pyrid-3-yloxy)-5-hydroxy-8-chloro-1,7-naphthyridine-6-formamido) Acetic Acid], for which the “EPO OD value” in data set [1] (10 mg/kg) and in [1] (50 mg/kg) was “A (A represents 1.0<EPO OD value<1.5)” in each case.

“rhEPO: positive drug control, intraperitoneally injected once at 100 IU/kg”: in [2] (setting [15]), the “Reticulocytes (RETIC), average” value came to 6.58; the “Reticulocytes (RETIC), individual animals No. 1-6” value was 5.9 (2×) and 6.6 (2×) and 7.1 and 7.4.

`O=c1c(-n2ccnn2)c[nH]n1-c1cc(N2CCOCC2)ncn1` [BAY85-3934, reference compound]: the entries for the “EPO OD value” in data set [1] (10 mg/kg) and in data set [1] (50 mg/kg) were “B (B represents 1.5<EPO OD value<2)” and “D (D represents EPO OD value>3)”, respectively.

`O=C(O)CNC(=O)c1nc(Cl)c2nc(Oc3cccc(Cl)c3)ccc2c1O` [Link-126, 2-(2-(3-chlorophenoxy)-5-hydroxy-8-chloro-1,7-naphthyridine-6-formamido) Acetic Acid]: in [2] (setting [12]), the “Reticulocytes (RETIC), average” value stood at 5.87. Besides, the IC50 in data set [6] was more than 50 µM; in [7], more than 50 µM; in data set [8] it was more than 50 µM; in data set [9], more than 50 µM; in [10], more than 50 µM; in data set [11], more than 30 µM. The “Inhibitory effect on hERG current at the highest test concentration” value (“Inhibitory effect on hERG current” below) in [11] was “far from the IC50 value”. Further, the results for the “EPO OD value” in data set [1] (10 mg/kg) and in data set [1] (50 mg/kg) were “A (A represents 1.0<EPO OD value<1.5)” and “D (D represents EPO OD value>3)”, respectively.

Take `COc1ccc(Oc2ccc3c(O)c(C(=O)NCC(=O)O)nc(Cl)c3n2)cc1` [Link-119, 2-(2-(4-methoxyphenoxy)-5-hydroxy-8-chloro-1,7-naphthyridine-6-formamido) Acetic Acid]: the “EPO OD value” in [1] (10 mg/kg) and in data set [1] (50 mg/kg) was “A (A represents 1.0<EPO OD value<1.5)” each time.

For the compound `O=C(O)CNC(=O)c1nc(Br)c2nc(Oc3ccc(F)cc3)ccc2c1O` [Link-131, 2-(2-(4-fluorophenoxy)-5-hydroxy-8-bromo-1,7-naphthyridine-6-formamido) Acetic Acid], in data set [3], the “HIF-1α protein expression compared with blank control” value was “higher than that of the blank control” and the fold induction at 30 µM lay within 4.5 to 8.5. In [4], the “HIF-2α protein expression compared with blank control” value is reported as “higher than that of the blank control” and the fold induction at 30 µM fell in the range of 4.5 to 8.5. Besides, the “EPO OD value” in data set [1] (10 mg/kg) was “A (A represents 1.0<EPO OD value<1.5)”. In addition, the “EPO OD value” in data set [1] (50 mg/kg) is listed as “A (A represents 1.0<EPO OD value<1.5)”.

Turning to `O=C(O)CNC(=O)c1nc(Cl)c2nc(Cl)ccc2c1O` [Link-122, 2-(2,8-dichloro-5-hydroxy-1,7-naphthyridine-6-formamido) acetic acid], the “EPO OD value” was “A (A represents 1.0<EPO OD value<1.5)” in data set [1] (10 mg/kg) and “B (B represents 1.5<EPO OD value<2)” in [1] (50 mg/kg).

For the compound `O=C(O)CNC(=O)c1nc(Br)c2nc(Oc3cccc(Cl)c3)ccc2c1O` [Link-127, 2-(2-(3-chlorophenoxy)-5-hydroxy-8-bromo-1,7-naphthyridine-6-formamido) Acetic Acid], in data set [2] (setting [12]), the “Reticulocytes (RETIC), average” value is on record as 5.63. The IC50 was 37.9 µM in [6]; more than 50 µM in [7]; more than 50 µM in data set [8]; more than 50 µM in [9]; more than 50 µM in [10]; more than 30 µM in [11]. In addition, the “Inhibitory effect on hERG current” value in data set [11] is reported as “far from the IC50 value”. The figures for the “EPO OD value” in data set [1] (10 mg/kg) and in [1] (50 mg/kg) were “A (A represents 1.0<EPO OD value<1.5)” and “D (D represents EPO OD value>3)”, respectively.

With `O=C(O)CNC(=O)c1nc(Cl)c2nc(Oc3ccc(Cl)cc3)ccc2c1O` [Link-128, 2-(2-(4-chlorophenoxy)-5-hydroxy-8-chloro-1,7-naphthyridine-6-formamido) Acetic Acid], the “Reticulocytes (RETIC), average” value in data set [2] (setting [12]) was found to be 6.15. In addition, the IC50 in data set [6] is more than 50 µM; in data set [7], more than 50 µM; in data set [8], more than 50 µM; in [9] it was more than 50 µM; in data set [10] it was more than 50 µM; in [11], more than 30 µM. The “Inhibitory effect on hERG current” value in data set [11] is listed as “far from the IC50 value”. The “EPO OD value” in data set [1] (10 mg/kg) is given as “A (A represents 1.0<EPO OD value<1.5)”; in data set [1] (50 mg/kg), “D (D represents EPO OD value>3)”.

As to `CCOc1ccc2c(O)c(C(=O)NCC(=O)O)nc(Cl)c2n1` [Link-134, 2-(2-ethoxy-5-hydroxy-8-chloro-1,7-naphthyridine-6-formamido) Acetic Acid], in [3], the “HIF-1α protein expression compared with blank control” value is “higher than that of the blank control” and the fold induction at 30 µM fell in the range of 1 to 4.5. In data set [4], the “HIF-2α protein expression compared with blank control” value was “higher than that of the blank control” and the fold induction at 30 µM is 1 to 4.5. For the same compound, the “EPO OD value” in [1] (10 mg/kg) was “A (A represents 1.0<EPO OD value<1.5)”. In data set [1] (50 mg/kg), the “EPO OD value” is on record as “A (A represents 1.0<EPO OD value<1.5)”.
